Entries after “also recorded” stand apart in the source; their conditions may differ. Where two headings read alike, the source gives them in different places.
Columns and labels:
[1] = system: H9 human embryonic stem cells; test: Cytotoxicity assay (MTS) in H9 cells; type: cell-based; conditions: for IC25H9: 25% inhibitory concentration, H9 cells, 3 days, MTS viability; for Cytotoxicity of tested concentration to hPSCs: Thalidomide 800 μM, Penicillin G 200 μg/ml
Method: (§1) The dose-dependent effect of each compound on the mesoendoderm pattern formation was determined by dosing at four test conditions: zero, low, medium and high drug concentrations (Fig. 3i). The cytotoxicity of each compound was evaluated in order to find the appropriate range of testing concentrations. […] The results would represent specific cytotoxicity to embryonic and adult cells respectively. Based on the cytotoxicity data, three drug concentrations (designated as low, medium and high) were selected such that the lowest concentration tested was not toxic to both H9 cells and aHDFs, and the highest concentration should not be cytotoxic to aHDFs. The tested concentration was considered as not cytotoxic if it was less than the drug’s 25% inhibitory concentration (IC25) to the tested cell line[25].
(§2) The cytotoxicity test was done in 96-well tissue culture plates with 100 μl of medium with or without the drug. For each drug, 8 concentrations with 5-fold dilution were tested together with the vehicle controls. For H9 cells, the plates were coated with Matrigel^TM before cell seeding. 10,000 hES cells or 1,000 aHDF cells were plated into each well and cultured for 3 days in the test solution with half change of the medium with or without the drug every day. On day 3, cell viability was measured using CellTiter 96® AQueous One Solution Cell Proliferation Assay (MTS, G3580, Promega). […] IC25 values were acquired from either logistic regression using OriginPro 9 or direct reading from the cytotoxicity curve.

[2] = parameters: method as in earlier work; conditions: ref 30-34 (Table 1), Supplementary refs 1-5, cited from earlier work
[3] = system: micropatterned human pluripotent stem cell (μP-hPSC) colonies; test: μP-hPSC model-based quantitative morphometric assay (disruption of annular mesoendoderm pattern); type: cell-based; conditions: for DC value compared with known Cmax: DC in μP-hPSC model vs Cmax in human plasma; for Does DC < IC25H9?: comparison of DC with IC25 to H9 cells; for Morphologic cluster readouts across four test groups (one-way ANOVA, post-hoc): control, low, medium, high concentrations, day 3; for DC (disruption concentration): lowest concentration which morphologically disrupts the mesoendoderm pattern vs non-treated control, 3-day mesoendoderm induction; for Teratogenicity classification in the μP-hPSC model: teratogenic if DC < IC25,H9
Method: as §1
A series of imaging processing and statistical analysis were developed to quantitatively measure the teratogenic effects of each drug (Fig. 3). After three days of culture in the mesoendoderm induction medium, immunofluorescence images of T were acquired (Fig. 3ii). We employed similar image quantification algorithms previously used for analyzing collagen deposition patterns in fibrotic tissues[26] to extract 19 morphological attributes that describe the annular mesoendoderm pattern (Fig. 3iii). […] A dose response plot was then generated for each morphologic cluster (Fig. 3iv). One-way analysis of variance (ANOVA) was performed to determine whether there were significant morphologic differences among test groups for each drug (Fig. 3v).
This concentration was defined as the disruption concentration (DC). If DC < IC25,H9, we can infer that the drug is teratogenic, where it affects embryonic development without being cytotoxic to embryonic cells.
The readouts of each morphologic cluster across the four test groups (i.e. control, low, medium, high) were plotted for each drug and one-way ANOVA was performed to determine whether there were significant differences across the test groups (Supplementary Fig. S7–S11).
The autoclaved PDMS stencil was first sealed onto a 60 mm petri dish (Nunc) using 200 μl of 70% ethanol. After drying in the cell culture hood, 450 μl Matrigel^TM in DMEM/F12 (11330032, GIBCO) was then added into each stencil and incubated for 5 hr at 37 °C before use. To obtain single cell suspension, the hPSC culture was treated with Accutase (SCR005, Merck Millipore) for about 10 min, and the cells were resuspended in mTeSR1 medium supplemented with 10 μM Y27632 (688000, Calbiochem, Merck Millipore). The cells were seeded onto the PDMS stencils at 100% confluence density of 4444 cells/mm^2 and allowed to attach for 1 hr. The stencil was then removed and the unpatterned substrate was passivated by backfilling with 0.5% Pluronic F-127 (P2443–1KG, Sigma-Aldrich) in DMEM/F12. After 10 min incubation, the μP-hPSC colonies were washed 3 times with DMEM/F12 and incubated at least for 3 hr in mTeSR^TM1 medium supplemented with 10 μM Y27632 before changed to mTeSR^TM1 medium alone. Differentiation was initiated 24 hr post seeding and lasted for 3 days before collecting the samples. For phase contrast live imaging, images were acquired every 20 min by BioStation CT (Nikon) using 10X objective. The imaging period started since the induction of differentiation and lasted for 3 days.
Morphological feature extraction from T fluorescence images was done in MATLAB Image Processing Toolbox (Mathworks). First, the outline of the μP-hPSC colony was identified by intensity difference compared with background and its centroid position was determined.

[4] = system: mouse embryonic stem cells (mESCs); conditions: disruption of beating cardiomyocyte formation from mESCs; cited from earlier work
[5] = system: adult human dermal fibroblasts (aHDFs); test: Cytotoxicity assay (MTS) in adult human dermal fibroblasts; type: cell-based; conditions: Thalidomide 800 μM; Penicillin G 200 μg/ml
Method: as §1
as §2, with “10,000 hES cells or 1,000 aHDF cells were plated into each well and cultured for 3 days in the test solution with half change of the medium with or without the drug every day.” left out

μP-hPSC colonies = test: Quantitative RT-PCR of germ layer markers in drug-treated μP-hPSC colonies; type: cell-based, human; conditions: day 3; for Expression levels of MIXL1, GSC, NKX2.5, FOXA2, PAX6 and NESTIN / Expression level of mesoendoderm marker T compared to untreated control colonies / SOX17 expression level compared with untreated control colonies: Thalidomide 800 μM, Penicillin G 200 μg/ml; for Expression levels of MIXL1, GSC, NKX2.5, FOXA2, PAX6 and NESTIN: untreated control
Text: Therefore, we reasoned that measuring changes in the mesoendoderm pattern, which is an assimilation of multiple cellular processes, as an assay readout for teratogenic potential, is sufficiently sensitive and may show better specificity as compared to the expression levels of a panel of molecular biomarkers for differentiation.
Total RNA was extracted from the samples on day 3 of the differentiation using the RNeasy® Plus Micro Kit (74034, QIAGEN) according to manufacturer’s protocol. Then cDNA was synthesized from the extracted RNA using High Capacity RNA-to-cDNA Kit (4387406, Applied Biosystems, Life Technologies). To analyze the gene expression levels of each sample, quantitative RT-PCR was performed using FastStart Universal SYBR Green Master (ROX) (04913914001, Roche) on the ABI 7500 Fast Real-Time PCR system (Applied Biosystems, Life Technologies) according to the manufacturer’s standard protocol. The relative quantitative expressions values of target genes were normalized to GAPDH and expressed relative to the levels of undifferentiated hPSCs using the ΔΔCT method. All primers used were commercially validated primers from GeneCopoeia^TM except for MIXL1, GSC, E-cadherin, N-cadherin, VIM, TWIST and SNAIL. The primer sequences/Catalogue numbers can be found in Supplementary Information (Supplementary Table S3).

[6] = human plasma, therapeutic dosing, cited from earlier work

DC value compared with known Cmax [3] | Does DC < IC25H9? [3] | DC (disruption concentration) [3] | SMILES | IC25H9 [1] | In vivo human data (teratogenicity) [2] | Morphologic cluster readouts across four test groups (one-way ANOVA, post-hoc) [3] | Teratogenicity classification in the μP-hPSC model [3] | In mEST (teratogenicity classification) [4] | Cytotoxicity of tested concentration to hPSCs [1] | Cytotoxicity of tested concentration to human adult fibroblasts [5] | Expression levels of MIXL1, GSC, NKX2.5, FOXA2, PAX6 and NESTIN (μP-hPSC colonies) | Expression level of mesoendoderm marker T compared to untreated control colonies (μP-hPSC colonies) | SOX17 expression level compared with untreated control colonies (μP-hPSC colonies) | further results
lower than or equal to | Yes | 200 µg/mL | CC(C)(S)[C@@H](N)C(=O)O [D-penicillamine] | 278 mg/L | Teratogenic[32] | significant dose-dependent morphologic disruptions of the mesoendoderm pattern | Teratogenic | non-terotogenic; also recorded: Non-teratogenic | – | – | – | – | – | In vivo human data (teratogenicity) ([2]; listed as D-Penicillamine): Teratogenic
much higher | much higher and No | – | CC1(C)S[C@@H]2[C@H](NC(=O)Cc3ccccc3)C(=O)N2[C@H]1C(=O)O [Penicillin G] | 787 mg/L | – | no significant differences among test groups in almost all morphologic clusters except CL6 | Non-teratogenic | – | non-cytotoxic | non-cytotoxic | no significant differences | higher expression level | no significant difference | Mesoendoderm pattern position (CL6) in high concentration test group ([3]; 1,000 μg/ml vs zero dose control, post-hoc p = 0.001): significant inward mesoenoderm pattern position toward the colony centre
lower than or equal to | Yes | 0.00036 µg/mL | CC1=C(/C=C/C(C)=C/C=C/C(C)=C/C(=O)O)C(C)(C)CCC1 [RA, Retinoic acid] | >2 mg/L | Teratogenic[31] | significant dose-dependent morphologic disruptions of the mesoendoderm pattern | Teratogenic | Teratogenic | – | – | – | – | – | Cmax ([6]; ref Muindi et al. (1992)): 0.347 µg/mL; In vivo human data (teratogenicity) ([2]; listed as Retinoic acid): Teratogenic

Further lines, the molecule ahead of its results:

SMILES | DC value compared with known Cmax [3] | Does DC < IC25H9? [3] | DC (disruption concentration) [3] | IC25H9 [1] | In vivo human data (teratogenicity) [2] | Morphologic cluster readouts across four test groups (one-way ANOVA, post-hoc) [3] | Teratogenicity classification in the μP-hPSC model [3] | In mEST (teratogenicity classification) [4] | Cytotoxicity of tested concentration to hPSCs [1] | Cytotoxicity of tested concentration to human adult fibroblasts [5] | Expression levels of MIXL1, GSC, NKX2.5, FOXA2, PAX6 and NESTIN (μP-hPSC colonies) | Expression level of mesoendoderm marker T compared to untreated control colonies (μP-hPSC colonies) | SOX17 expression level compared with untreated control colonies (μP-hPSC colonies) | further results
O=C1CCC(N2C(=O)c3ccccc3C2=O)C(=O)N1 (centres unmarked) [Thalidomide] | – | Yes | 30 µM | >1000 µM | Teratogenic[30] | significant dose-dependent morphologic disruptions of the mesoendoderm pattern | Teratogenic | cannot be detected | non-cytotoxic | non-cytotoxic | no significant differences | higher expression level | no significant difference | Cmax ([6]; ref Teo et al. (2004), read-out: Cmax): 10.9 µM; Expression level of definitive endoderm marker SOX17 compared with Penicillin G-treated colonies (μP-hPSC colonies; Thalidomide 800 μM vs Penicillin G 200 μg/ml): significantly lower; Collective cell migration trajectory (live imaging and kymograph) ([3]; Thalidomide 800 μM, Penicillin G 200 μg/ml, 3-day live imaging, vs untreated colonies): migrated much more towards the colony center; Mesoendoderm pattern morphology (T+ cells) after 3 days ([3]; Thalidomide 800 μM, Penicillin G 200 μg/ml, vs untreated colonies): much wider mesoendoderm pattern that was displaced towards the colony center
CCCC(CCC)C(=O)O [VPA, Valproic acid] | lower than or equal to | Yes | 100 µM | 130 µM | Teratogenic | significant dose-dependent morphologic disruptions of the mesoendoderm pattern | – | – | – | – | – | – | – | Cmax ([6]; ref Reed et al. (2006), read-out: Cmax): 574 µM

Reference: PMC4428054, “A method for human teratogen detection by geometrically confined cell differentiation and migration” (Scientific Reports, 2015)
